Measurements reported in the supplement of paper PMC10307832.

Tests used:
Test in all cases: relative viability (nuclei count vs DMSO), 5 days (fraction); higher = more cells survive
[1] = compound: C1CNCCC1C2=CC(=NN2)C3=CC=NC=C3 + C[C@@H](Oc1cc(-c2cnn(C3CCNCC3)c2)cnc1N)c1c(Cl)ccc(F)c1Cl [Crizotinib] (partner 1 µM)
In short: (§1)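 Nuclei were stained with Hoechst during a one-step fixation (final 0.05% Triton X-100, 1% formaldehyde, 1 ug/ml Hoechst) carried out 5 days after dosing, then counted on 4× images. The cells, lung cancer lines in 1536-well plates, had been dosed by pin tool the day after seeding with one drug alone or a fixed anchor-drug dose plus five library-drug doses (not always all listed) in √10 steps. Relative viability is the nuclei count in treated wells divided by that in vehicle wells, and each value is the median of duplicate plates.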

[2] = compound: C1CNCCC1C2=CC(=NN2)C3=CC=NC=C3 + N=C(N)NC(=N)NCCc1ccccc1 [Phenformin] (partner 250 µM)
In short: as §1

[3] = compound: C[C@@H](N)c1ccc(C(=O)Nc2ccnc3[nH]ccc23)cc1 + Cc1nc(Nc2ncc(C(=O)Nc3c(C)cccc3Cl)s2)cc(N2CCN(CCO)CC2)n1 [Dasatinib] (partner 0.075 µM)
In short: as §1

Tanzisertib + Bortezomib = compound: O[C@H]1CC[C@H](Nc2ncc3nc(Nc4c(F)cc(F)cc4F)n([C@H]4CCOC4)c3n2)CC1 [Tanzisertib] + CC(C)C[C@H](NC(=O)[C@H](Cc1ccccc1)NC(=O)c1cnccn1)B(O)O [Bortezomib] (partner 0.002 µM)
In short: as §1

| Cell Line | relative viability ([1]; first compound 0.08 µM) | relative viability ([1]; first compound 0.8 µM) | relative viability ([1]; first compound 2.53 µM) | relative viability ([1]; first compound 8 µM) | relative viability ([2]; first compound 0.08 µM) | relative viability ([2]; first compound 0.8 µM) | relative viability ([2]; first compound 2.53 µM) | relative viability ([2]; first compound 8 µM) | relative viability ([3]; first compound 0.04 µM) | relative viability ([3]; first compound 0.1265 µM) | relative viability ([3]; first compound 0.4 µM) | relative viability ([3]; first compound 4 µM) | relative viability (Tanzisertib + Bortezomib; first compound 0.08 µM) | relative viability (Tanzisertib + Bortezomib; first compound 0.253 µM) | relative viability (Tanzisertib + Bortezomib; first compound 0.8 µM) | relative viability (Tanzisertib + Bortezomib; first compound 2.53 µM) | relative viability (Tanzisertib + Bortezomib; first compound 8 µM) | relative viability ([3]; first compound 1.265 µM) |
| --- | --- | --- | --- | --- | --- | --- | --- | --- | --- | --- | --- | --- | --- | --- | --- | --- | --- | --- |
| NCI-H441 | 0.709 | 0.713 | 0.853 | 0.862 | 0.634 | 0.947 | 0.831 | 0.753 | 0.671 | 0.739 | 0.867 | 0.667 | 0.53 | 0.409 | 0.407 | 0.815 | 0.471 | – |
| NCI-H460 | 0.369 | 1.02 | 1.02 | 0.996 | 0.335 | 0.72 | 0.564 | 0.51 | 0.463 | 0.525 | 0.451 | 0.337 | 1.21 | 1.2 | 1.12 | 1.07 | 0.965 | 0.27 |
| NCI-H520 | 0.742 | 0.921 | 0.727 | 0.736 | 0.439 | 0.309 | 0.758 | 0.908 | 0.212 | 0.205 | 0.181 | 0.196 | 0.945 | 0.739 | 0.606 | 0.51 | 0.446 | 0.219 |
| NCI-H596 | 0.984 | 1.15 | 1.04 | 0.991 | 0.657 | 0.841 | 0.927 | 0.86 | 0.671 | 0.537 | 0.493 | 0.557 | 1.1 | 0.99 | 1.2 | 0.907 | 1.1 | – |
| NCI-H647 | 1.05 | 1.08 | 1.01 | 1.06 | 0.44 | 0.487 | 0.52 | 0.533 | 0.15 | 0.172 | 0.157 | 0.133 | 1.03 | 1.01 | 1 | 1.14 | 1.02 | 0.166 |
| NCI-H650 | 0.681 | 0.802 | 0.929 | 0.489 | 0.5 | 0.451 | 0.473 | 0.46 | – | 0.41 | 0.393 | 0.32 | 0.868 | 1 | 0.87 | 0.945 | 0.366 | 0.245 |
| NCI-H661 | 1.15 | 0.96 | 1.05 | 0.902 | 0.277 | 0.263 | 0.273 | 0.273 | 0.702 | 0.878 | 0.893 | 0.55 | 0.859 | 0.64 | 0.874 | 0.567 | 0.795 | 0.723 |
| NCI-H727 | 0.718 | 1.1 | 1.05 | 0.776 | 0.529 | 0.468 | 0.619 | 0.631 | 0.628 | 0.529 | 0.71 | 0.725 | 1 | 0.762 | 1.04 | 0.806 | 0.64 | 0.479 |
| NCI-H838 | 0.844 | 0.924 | 0.954 | 0.796 | 0.605 | 0.546 | 0.577 | 0.563 | 0.221 | 0.305 | 0.26 | 0.233 | 1.24 | 0.971 | 0.807 | 0.778 | 0.643 | 0.187 |
| NCI-H1355 | 1.02 | 1.03 | 1.12 | 1.13 | 0.482 | 0.463 | 0.49 | 0.456 | 0.516 | 0.738 | 0.764 | 0.427 | 1.1 | 1.34 | 1.23 | 1.23 | 1.34 | 0.671 |
| NCI-H1437 | 0.866 | 0.967 | 0.929 | 0.883 | 0.34 | 0.313 | 0.298 | 0.299 | 0.451 | 0.292 | 0.372 | 0.393 | 0.663 | 0.648 | 0.479 | 0.531 | 0.393 | 0.471 |
| NCI-H1563 | 0.644 | 0.766 | 0.85 | 0.941 | 0.619 | 0.642 | 0.679 | 0.673 | 0.49 | 0.462 | 0.486 | 0.465 | 0.957 | 0.859 | 0.917 | 0.829 | 0.945 | 0.377 |
| NCI-H1650 | 0.43 | 1.08 | 1.07 | 0.963 | 0.287 | 0.442 | 0.428 | 0.356 | 0.42 | 0.402 | 0.428 | 0.311 | 0.192 | 0.217 | 0.201 | 0.195 | 0.182 | 0.39 |
| NCI-H1651 | 0.825 | 0.832 | 0.872 | 0.854 | 0.351 | 0.3 | 0.333 | 0.344 | 0.389 | 0.429 | 0.414 | 0.41 | 0.897 | 0.917 | 0.925 | 0.875 | 0.853 | 0.288 |
